What was measured:
Assay type in all cases: physicochemical
[1] = Stability assay under illumination, high humidity, high temperature and acceleration (related substances and crystal form); parameters: Total impurity: unit not given here; conditions: for Change of crystal form: 17 days
Protocol: The stability of crystal form of the crystal form A and the crystal form C of the compound of formula (II) under the conditions of illumination, high humidity (92.5% RH), high temperature (60° C.) and acceleration (40° C./75% RH) was investigated.
Illumination test chamber, model: SHH-100GD-2, conditions: 5000±500 lux (visible light) and 90 mw/cm^2 (ultraviolet).
Electrothermal blowing dry box, model: GZX-9140MBE, conditions: 60° C.
Constant temperature and humidity chamber, model: LDS-800Y, conditions: 40° C./75% RH.
Constant temperature and humidity chamber, model: SHH-250SD, conditions: 25° C., 92.5% RH.
An appropriate amount of the crystal form A of the compound of formula (II) was weighed and placed in a dry and clean weighing bottle. The sample was spread into a thin layer, and fully exposed to assay conditions (60° C., 92.5% RH, illumination) and acceleration conditions (40° C./75% RH). After 17 days, the compound was taken out and determined for related substances and crystal form. […]

[2] = Water activity assay (stability of the crystal form in water with different activities); conditions: methanol/water, stirred two days, XRPD
Protocol: The stability of the crystal form in water with different activities was determined.
About 30 mg of the crystal form A of the compound of formula (II) was weighed and placed in a 1.5 mL liquid phase vial. A magnetic bar was added, and an appropriate amount of water activity agent in a system of methanol and water was pipetted into the liquid phase vial. The suspension sample was mixed well and then placed on a magnetic stirrer (25° C., 700 rpm). After stirring for two days, the wet sample was determined by XRPD.

[3] = Hygroscopicity study by dynamic vapor sorption (DVS)
Protocol: 1.4. Dynamic Vapor Sorption, DVS Method
Instrument model: SMS DVS Advantage dynamic vapor sorption apparatus
Test conditions: The sample (10 to 15 mg) is weighed and placed in a DVS sample pan for testing.
The detailed DVS parameters are as follows:
Equilibration: dm/dt=0.01%/min (The shortest time: 10 min, and the longest time: 180 min)
Drying: Dried for 120 min at 0% RH
RH (%) test gradient: 10%
Range of RH (%) test gradient: 0%-90%-0%
The classification of hygroscopicity evaluation is as follows:
10-15 mg of the crystal form A and the crystal form C of the compound of formula (II) were weighed and placed into a DVS sample pan for testing.

[4] = Solubility assay in media with different pHs; conditions: for Solubility (24 hours) / Solubility (2 hours): 37° C.; for Final pH: filtrate of saturated solution
Protocol: (§1) 9 parts of 4 mg of the crystal form A of the compound of formula (II) were weighed and added to a 1.5 mL sample bottle, respectively, and then 1 mL of different media (0.1 mol/L HCl, 0.01 mol/L HCl, pH3.8 buffer solution, pH4.5 buffer solution, pH5.5 buffer solution, pH6.0 buffer solution, pH6.8 buffer solution, pH7.4 buffer solution, and water) were added, respectively. Based on the dissolution situation, the raw material compound was continuously added until a saturated solution was formed. The magnetic bar was added to the above suspension, and the suspension was placed on a magnetic stirrer (37° C., protected from light) and stirred. […] The upper layer of the sample was filtered with a filter membrane, and the pH value of the filtrate was determined. The saturated solubility of the compound was determined by HPLC.
as §1, with “C” for “A”

Stability compared with the crystal form D of the maleate of the compound of formula (I) [1]: better
Related substance at relative retention time 0.24 ([1]; 40° C. - 75% RH - 17 days): 0.03
Related substance at relative retention time 0.67 ([1]; 40° C. - 75% RH - 17 days): 0.16
Related substance at relative retention time 0.88 ([1]; 40° C. - 75% RH - 17 days): 0.04
Related substance at relative retention time 0.92 ([1]; 40° C. - 75% RH - 17 days): 0.04
Related substance at relative retention time 1.24 ([1]; 40° C. - 75% RH - 17 days): 0.15
Related substance at relative retention time 1.30 ([1]; 40° C. - 75% RH - 17 days): 0.18
Related substance at relative retention time 1.56 ([1]; 40° C. - 75% RH - 17 days): 0.04
Related substance at relative retention time 1.76 ([1]; 40° C. - 75% RH - 17 days): 0.04
Total impurity ([1]; 40° C. - 75% RH - 17 days): 0.66
Related substance at relative retention time 0.24 ([1]; 60° C. - 17 days): 0.03
Related substance at relative retention time 0.67 ([1]; 60° C. - 17 days): 0.91
Related substance at relative retention time 0.88 ([1]; 60° C. - 17 days): 0.05
Related substance at relative retention time 0.92 ([1]; 60° C. - 17 days): 0.03
Related substance at relative retention time 1.24 ([1]; 60° C. - 17 days): 0.15
Related substance at relative retention time 1.30 ([1]; 60° C. - 17 days): 0.16
Related substance at relative retention time 1.56 ([1]; 60° C. - 17 days): 0.04
Related substance at relative retention time 1.76 ([1]; 60° C. - 17 days): 0.07
Total impurity ([1]; 60° C. - 17 days): 1.44
Related substance at relative retention time 0.24 ([1]; 92.5% RH - 17 days): 0.03
Related substance at relative retention time 0.67 ([1]; 92.5% RH - 17 days): 0.05
Related substance at relative retention time 0.88 ([1]; 92.5% RH - 17 days): 0.04
Related substance at relative retention time 0.92 ([1]; 92.5% RH - 17 days): 0.04
Related substance at relative retention time 1.24 ([1]; 92.5% RH - 17 days): 0.14
Related substance at relative retention time 1.30 ([1]; 92.5% RH - 17 days): 0.18
Related substance at relative retention time 1.56 ([1]; 92.5% RH - 17 days): 0.04
Related substance at relative retention time 1.76 ([1]; 92.5% RH - 17 days): 0.02
Total impurity ([1]; 92.5% RH - 17 days): 0.54
Related substance at relative retention time 0.24 ([1]; Illumination - 17 days): 0.03
Related substance at relative retention time 0.67 ([1]; Illumination - 17 days): 0.07
Related substance at relative retention time 0.88 ([1]; Illumination - 17 days): 0.04
Related substance at relative retention time 0.92 ([1]; Illumination - 17 days): 0.05
Related substance at relative retention time 1.24 ([1]; Illumination - 17 days): 0.13
Related substance at relative retention time 1.30 ([1]; Illumination - 17 days): 0.17
Related substance at relative retention time 1.56 ([1]; Illumination - 17 days): 0.04
Total impurity ([1]; Illumination - 17 days): 0.46
Related substance at relative retention time 0.24 ([1]; Initial sample): 0.03
Related substance at relative retention time 0.67 ([1]; Initial sample): 0.05
Related substance at relative retention time 0.88 ([1]; Initial sample): 0.03
Related substance at relative retention time 1.24 ([1]; Initial sample): 0.15
Related substance at relative retention time 1.30 ([1]; Initial sample): 0.18
Related substance at relative retention time 1.56 ([1]; Initial sample): 0.04
Total impurity ([1]; Initial sample): 0.53
Change of crystal form ([1]; acceleration (40° C./75% RH)): not changed
Change of crystal form ([1]; high humidity (92.5% RH)): changed
Change of crystal form ([1]; high temperature (60° C.)): not changed
Change of crystal form ([1]; illumination): not changed
Crystal form change in water activity assay ([2]; water activity 0.1 and 0.3, 25° C.): not changed
Crystal form change in water activity assay ([2]; water activity greater than 0.3, 25° C.): changed to the crystal form C
ΔW (weight increase by moisture absorption) ([3]; 25° C. and 80% RH): 1.329%
Classification of hygroscopicity ([3]; 25° C., 80% RH): slightly hygroscopic
Solubility (24 hours) ([4]; 0.01 mol/L HCl): 7.941 mg/mL
Solubility (conclusion) ([4]; buffer solutions below pH 6.8 and purified water): high solubility
Final pH ([4]; 0.01 mol/L HCl): 3.59
Final pH ([4]; pH 3.8 buffer solution): 3.988
Final pH ([4]; pH 4.5 buffer solution): 4.531
Final pH ([4]; pH 5.5 buffer solution): 5.499
Final pH ([4]; pH 6.0 buffer solution): 5.900
Final pH ([4]; pH 6.8 buffer solution): 6.588
Final pH ([4]; pH 7.4 buffer solution): 7.096
Final pH ([4]; water): 5.296
Evaluation of dissolution property ([4]; merged cell: 0.1 mol/L HCl, 0.01 mol/L HCl, pH 3.8, 4.5, 5.5, 6.0 buffer solutions and water): High solubility
Evaluation of dissolution property ([4]; merged cell: pH 6.8 and pH 7.4 buffer solutions): Low solubility
Solubility (2 hours) ([4]; pH 3.8 buffer solution): 3.749 mg/mL
Solubility (24 hours) ([4]; pH 3.8 buffer solution): 3.645 mg/mL
Solubility (2 hours) ([4]; pH 4.5 buffer solution): 3.824 mg/mL
Solubility (24 hours) ([4]; pH 4.5 buffer solution): 3.141 mg/mL
Solubility (2 hours) ([4]; pH 5.5 buffer solution): 3.571 mg/mL
Solubility (2 hours) ([4]; pH 6.0 buffer solution): 3.785 mg/mL
Solubility (24 hours) ([4]; pH 6.0 buffer solution): 3.638 mg/mL
Solubility (2 hours) ([4]; water): 2.720 mg/mL
Structure (SMILES): COc1cc2ncnc(Nc3cccc(Cl)c3F)c2cc1N1CC2(CN(C)C2)OC1=O.Cc1ccc(S(=O)(=O)O)cc1 [crystal form A of the compound of formula (II)]
Formation of degradation impurity (conclusion) ([1]; illumination, high temperature, high humidity, acceleration): produces a degradation impurity only under the condition of high temperature
